Tests used:
Assay type in all cases: biochemical
Human liver cathepsin B = biological target: T1, Human liver cathepsin B (Homo sapiens, UniProt P07858); assay: Cathepsin B assay, IC50 determination; conditions: Table 1; read-out: IC50 Cat B
T1 construct: Human liver cathepsin B (Calbiochem 219362, 65 ng/mL); purchased Calbiochem 219362; host or cells: human liver
Protocol: (§1) Human spleen cathepsin S (Calbiochem 219344, 40 ng/mL) was assayed using 15 microM Z-Phe-Arg-AMC substrate. Human liver cathepsin B (Calbiochem 219362, 65 ng/mL) was assayed using 15 microM Z-Arg-Arg-AMC substrate (Bachem I-1135). All reactions were performed in 20 mM sodium acetate buffer containing 1 mM EDTA and 5 mM cysteine, pH 5.5.
(§2) Compounds were serially diluted in DMSO and transferred into a 96-well Corning 3686 assay microplate to give a 16-point two-fold serial dilution dose response ranging from 25 microM to 760 pM. Human liver cathepsin L (Calbiochem 219402) was activated by incubating with assay buffer for 30 min. Upon activation, cathepsin L (300 pM, 8.7 ng/mL) was incubated with 1 microM Z-Phe-Arg-AMC substrate (Sigma C9521) and test compound in […] of assay buffer for 1 hour at room temperature. Fluorescence of AMC released by enzyme-catalyzed hydrolysis of Z-Phe-Arg-AMC was read on a PerkinElmer Envision microplate reader (excitation 355 nm, emission 460 nm). Data were scaled using internal controls and fitted to a four-parameter logistic model (IDBS XLfit equation 205) to obtain IC50 values in triplicate.
(§3) Compound No. 1 was assayed for inhibition against papain and cathepsins B, G, K, S, and V. Papain from Carica papaya (Calbiochem 5125, 11 ng/mL), human cathepsin K (Calbiochem 342001, 35 ng/mL), human spleen cathepsin S (Calbiochem 219344, 40 ng/mL), and human cathepsin V (Calbiochem 219467, 39 ng/ml) were assayed using Z-Phe-Arg-AMC substrate at 20 μM, 20 μM, 15 μM, and 1 μM, respectively. Human liver cathepsin B (Calbiochem 219362, 65 ng/mL) was assayed using 15 μM Z-Arg-Arg-AMC substrate (Bachem I-1135). Human neutrophil cathepsin G (Calbiochem 219373, 4.2 μg/mL) was assayed using 15 μM Suc-Ala-Ala-Pro-Phe-AMC substrate (Sigma S9761). All reactions were performed in 20 mM sodium acetate buffer containing 5 mM cysteine and 1 mM EDTA, pH 5.5. Reaction progress was monitored using the Envision microplate reader. IC50 values were measured in triplicate.

human liver cathepsin L = biological target: T2, human liver cathepsin L (Homo sapiens, UniProt P07711); assay: Cathepsin L assay, IC50 determination; conditions: Table 1; read-out: IC50 Cat L
T2 construct: 8.7 ng/mL human liver cathepsin L (Calbiochem 219402); purchased Calbiochem 219402; host or cells: human liver
T2 sequence (P07711 114-288 limits assumed): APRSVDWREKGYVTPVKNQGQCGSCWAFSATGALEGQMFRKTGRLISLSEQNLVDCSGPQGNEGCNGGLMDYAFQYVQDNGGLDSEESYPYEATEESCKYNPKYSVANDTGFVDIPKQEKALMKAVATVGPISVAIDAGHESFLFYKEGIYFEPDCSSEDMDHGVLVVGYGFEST
T2 sequence (P07711 292-333 limits assumed): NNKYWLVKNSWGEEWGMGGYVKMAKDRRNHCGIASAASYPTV
Protocol: Assay buffer consisted of 20 mM sodium acetate, 1 mM ethylenediaminetetraacetic acid (EDTA) and 5 mM cysteine, pH 5.5. Cathepsin L was incubated in assay buffer for 30 minutes prior to dispensing into wells to allow for efficient reduction of the active site cysteine required for full enzymatic activity.
Upon activation, cathepsin L (300 pM, 8.7 ng/mL) was incubated with 1 microM Z-Phe-Arg-AMC substrate (Sigma C9521) and test compound in […] of assay buffer for 1 hour at room temperature.
All reactions were performed in 20 mM sodium acetate buffer containing 5 mM cysteine and 1 mM EDTA, pH 5.5. Reaction progress was monitored using the Envision microplate reader. IC50 values were measured in triplicate.

Human spleen cathepsin S = biological target: T3, Human spleen cathepsin S (Homo sapiens, UniProt P25774); assay: Cathepsin S assay, IC50 determination; conditions: Table 1; read-out: IC50 Cat S
T3 construct: Human spleen cathepsin S (Calbiochem 219344, 40 ng/mL); purchased Calbiochem 219344; host or cells: human spleen
T3 sequence (P25774 115-331): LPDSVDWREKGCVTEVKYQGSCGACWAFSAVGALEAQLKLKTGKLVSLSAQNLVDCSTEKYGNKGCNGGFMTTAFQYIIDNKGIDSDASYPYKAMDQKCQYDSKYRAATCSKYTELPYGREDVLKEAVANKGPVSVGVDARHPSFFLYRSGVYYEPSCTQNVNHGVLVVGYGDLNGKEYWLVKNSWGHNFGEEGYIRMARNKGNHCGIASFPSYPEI
Protocol: as §1, §2, §3

| IC50 (Human liver cathepsin B) [µM] | IC50 (human liver cathepsin L) [µM] | IC50 (Human spleen cathepsin S) [µM] | SMILES |
| --- | --- | --- | --- |
| 14.3 | 1.27 | 2.15 | CCc1ccccc1NC(=O)CSC(=O)NNC(=O)[C@H](COCc1ccccc1)NC(=O)OC(C)(C)C [Compound No. 46] |
| > 25 | 15.4 | 4.42 | CCc1ccccc1NC(=O)CSC(=O)NNC(=O)[C@@H](COCc1ccccc1)NC(=O)OC(C)(C)C [Compound No. 48] |
| 5.07 | 0.7 | 1.44 | CC(C)(C)OC(=O)N[C@@H](COCc1ccccc1)C(=O)NNC(=O)SCC(=O)Nc1ccccc1[N+](=O)[O-] [Compound No. 55] |
| 14.3 | 1.27 | 2.15 | CCc1ccccc1NC(=O)CSC(=O)NNC(=O)[C@H](CCCCNC(=O)OCc1ccccc1)NC(=O)OC(C)(C)C [Compound No. 58] |
| > 25 | 3.67 | 2.15 | CCc1ccccc1NC(=O)CSC(=O)NNC(=O)[C@H](CCCNC(=N)N[N+](=O)[O-])NC(=O)OC(C)(C)C [Compound No. 62] |
| ≥ 25 | > 25 | > 25 | CCc1ccccc1NC(=O)CSC(=O)NNC(=O)CNC(=O)OC(C)(C)C [Compound No. 64] |
| 13.7 | > 25 | > 25 | CCc1ccccc1NC(=O)CSC(=O)NNC(=O)[C@H](Cc1ncc[nH]1)NC(=O)OC(C)(C)C [Compound No. 65] |
| > 25 | > 25 | > 25 | CCc1ccccc1NC(=O)CSC(=O)NNC(=O)[C@H](C)CO [Compound No. 67] |
| > 25 | > 25 | > 25 | CCc1ccccc1NC(=O)CSC(=O)NNC(=O)[C@@H](C)CO [Compound No. 69] |
| > 25 | > 25 | > 25 | CCc1ccccc1NC(=O)CSC(=O)NNC(=O)[C@@H](C)CO[Si](C)(C)C(C)(C)C [Compound No. 71] |
| > 25 | > 25 | > 25 | CCc1ccccc1NC(=O)CSC(=O)NNC(=O)C[C@H](C)NC(=O)OC(C)(C)C [Compound No. 74] |
| > 25 | > 25 | > 25 | C[C@@H](CC(=O)NNC(=O)SCC(=O)N1CCCc2ccccc21)NC(=O)OC(C)(C)C [Compound No. 75] |
| > 25 | 5.52 | 2.41 | CCc1ccccc1NC(=O)CSC(=O)NNC(=O)C[C@H](CCSC)NC(=O)OC(C)(C)C [Compound No. 76] |
| > 25 | 6.95 | 3.01 | CSCC[C@@H](CC(=O)NNC(=O)SCC(=O)N1CCCc2ccccc21)NC(=O)OC(C)(C)C [Compound No. 77] |
| 11.5 | 7.52 | > 25 | CCc1ccccc1NC(=O)CSC(=O)NNC(=O)C[C@@H](NC(=O)OC(C)(C)C)C(C)C [Compound No. 78] |
| 15.8 | > 25 | > 25 | CC(C)[C@@H](CC(=O)NNC(=O)SCC(=O)N1CCCc2ccccc21)NC(=O)OC(C)(C)C [Compound No. 79] |
| > 25 | > 25 | > 25 | CCc1ccccc1NC(=O)CSC(=O)NNC(=O)C[C@@H]1CCCN1C(=O)OC(C)(C)C [Compound No. 80] |
| > 25 | > 25 | 4.47 | CCc1ccccc1NC(=O)CSC(=O)NNC(=O)C[C@H](COCc1ccccc1)NC(=O)OC(C)(C)C [Compound No. 82] |
| > 25 | > 25 | 15.2 | CCc1ccccc1NC(=O)CSC(=O)NNC(=O)C[C@@H](COCc1ccccc1)NC(=O)OC(C)(C)C [Compound No. 84] |
| > 25 | > 25 | > 25 | CCc1ccccc1NC(=O)CSC(=O)NNC(=O)C[C@@H](Cc1c[nH]c2ccccc12)NC(=O)OC(C)(C)C [Compound No. 86] |

Further lines, the molecule ahead of its results:

| SMILES | IC50 (Human liver cathepsin B) [µM] | IC50 (human liver cathepsin L) [µM] | IC50 (Human spleen cathepsin S) [µM] |
| --- | --- | --- | --- |
| CC(C)(C)OC(=O)N[C@@H](COCc1ccccc1)C(=O)NNC(=O)SCC(=O)N1CCCc2ccccc21 [Compound No. 47] | 13.2 | 1.51 | 2.64 |
| CC(C)(C)OC(=O)N[C@H](COCc1ccccc1)C(=O)NNC(=O)SCC(=O)N1CCCc2ccccc21 [Compound No. 49] | > 25 | 17.9 | 5.89 |
| CC(C)(C)OC(=O)N[C@@H](COCc1ccccc1)C(=O)NNC(=O)SCC(=O)N1CCc2ccccc2C1 [Compound No. 50] | 9.28 | 0.37 | 0.95 |
| CC(C)(C)OC(=O)N[C@@H](COCc1ccccc1)C(=O)NNC(=O)SCC(=O)NCCc1ccccc1 [Compound No. 51] | > 25 | 0.51 | 0.65 |
| CC(C)(C)OC(=O)N[C@@H](COCc1ccccc1)C(=O)NNC(=O)SCC(=O)NCCc1ccc(Br)cc1 [Compound No. 52] | > 25 | 0.58 | 0.91 |
| CC(C)(C)OC(=O)N[C@@H](COCc1ccccc1)C(=O)NNC(=O)SCC(=O)NCCc1c[nH]c2ccccc12 [Compound No. 53] | > 25 | 0.38 | 0.92 |
| CCOC(=O)c1cccc(NC(=O)CSC(=O)NNC(=O)[C@H](COCc2ccccc2)NC(=O)OC(C)(C)C)c1 [Compound No. 56] | > 25 | 0.43 | 1.64 |
| CC(C)(C)OC(=O)N[C@@H](CCCCNC(=O)OCc1ccccc1)C(=O)NNC(=O)SCC(=O)N1CCCc2ccccc21 [Compound No. 57] | 4.35 | > 25 | 5.15 |
| CC(C)(C)OC(=O)N[C@@H](CCC(=O)NC1c2ccccc2Oc2ccccc21)C(=O)NNC(=O)SCC(=O)N1CCCc2ccccc21 [Compound No. 60] | > 25 | > 25 | > 25 |
| CC(C)(C)OC(=O)N[C@@H](Cc1ncc[nH]1)C(=O)NNC(=O)SCC(=O)N1CCCc2ccccc21 [Compound No. 66] | 11.6 | > 25 | > 25 |
| C[C@H](CO)C(=O)NNC(=O)SCC(=O)N1CCCc2ccccc21 [Compound No. 68] | > 25 | > 25 | > 25 |
| C[C@@H](CO)C(=O)NNC(=O)SCC(=O)N1CCCc2ccccc21 [Compound No. 70] | > 25 | > 25 | > 25 |
| CCc1ccccc1NC(=O)CSC(=O)NNC(=O)[C@@H](C)COCc1ccc(OC)cc1 [Compound No. 72] | > 25 | > 25 | > 25 |
| CCc1ccccc1NC(=O)CSC(=O)NNC(=O)CCc1c[nH]c2ccccc12 [Compound No. 73] | > 25 | > 25 | > 25 |
| CC(C)(C)OC(=O)N1CCC[C@H]1CC(=O)NNC(=O)SCC(=O)N1CCCc2ccccc21 [Compound No. 81] | > 25 | > 25 | > 25 |
| CC(C)(C)OC(=O)N[C@@H](COCc1ccccc1)CC(=O)NNC(=O)SCC(=O)N1CCCc2ccccc21 [Compound No. 83] | > 25 | 2.12 | 5.95 |
| CC(C)(C)OC(=O)N[C@H](COCc1ccccc1)CC(=O)NNC(=O)SCC(=O)N1CCCc2ccccc21 [Compound No. 85] | > 25 | > 25 | > 25 |

— US20110207726A1, “Inhibitors of Human Cathepsin L, Cathepsin B, and Cathepsin S” (The Trustees of the University of Pennsylvania, priority 2008, published 2011)
